Where “and” joins values, the source holds several entries; their conditions need not be identical. Equal entries are not always repeated.
What was measured:
[1] = test system: motor cortex brain slices from the CCK^−/− mice; test: Brain slice electrophysiology, fEPSP/LTP after HFS in motor cortex slices; format: cell-based; settings: CCK4 500 nM, % of baseline
Protocol: The slice electrophysiology experiment is carried out following the methods reported previously^9. In the experiments, 6-8 weeks old C57BL/6 or CCK^−/− mice are anesthetized with isoflurane in a small chamber. The mouse head is cut, and the brain is rapidly removed and put into an oxygenated (95% O2-5% CO2) artificial cerebral spinal fluid (ACSF) cold bath containing 26 mM of NaHCO3, 2 mM of CaCl2), 1.25 mM of KH2PO4, 1.25 mM of MgSO4, 124 mM of NaCl, 3 mM of KCl and 10 mM of glucose, pH 7.35-7.45. The brain is sectioned from the middle line into two hemispheres. The portions with the brain areas of the motor cortex are trimmed and glued on the ice-cold stage of a vibrating tissue slicer (VT1000S, Leica, https://www.gmi-inc.com/product/leica-vt1000s-microtome, Germany). Coronal sections of slices containing the motor cortex (300 μm thick) are trimmed and gently transferred into an ACSF containing chamber, which is put in a water bath at 28° C. and oxygen blowing continuously. […]
After recovery, the motor cortex slice is covered by the recording electrodes. […] The electrophysiological data are extracted and analyzed with offline software, Mobius software. For quantification of the LTP data, the initial amplitudes of fEPSPs are normalized and expressed as percentage changes over the averaged baseline activity. […]

CCK^−/− mice = test: Rescue of motor learning ability of CCK^−/− mice with CCK4, single pellet reaching task; format: in vivo; settings: for success rate: CCK4 0.45 mg/kg i.p. every day before training; for miss rate: CCK4 0.45 mg/kg i.p.
Source text: (§1) The task has two periods, shaping and training. […] Only attempts by the dominant hand are counted.
CCK4, a tetrapeptide derived from the peptide of CCK is selected as a potential drug to rescue the motor learning defect caused by the lack of CCK, because CCK4 remains the function to activate the CCK receptor but has a much smaller molecule than CCK8s or CCK58, making it transmit through the brain-blood barrier easily and smoothly^10-11. Therefore, intraperitoneal injection of the CCK4 is a simple and easily available way to rescue CCK lack caused motor learning defects. After shaping, CCK^−/− mice are injected intraperitoneally with CCK4 (0.45 mg/kg, Cat #ab141328, Abcam, https://securedrtest.abcam.com, UK) or vehicle before training every day.

[2] = target: T1, CCKBRs in the motor cortex (Mus musculus, UniProt P56481); test: Single pellet reaching task with CCKBR antagonist injected into the motor cortex; format: in vivo, C57BL/6 mice; settings: for success rate: 1 μl 20 μM into motor cortex via cannula before training
T1 construct: from tissue; host or cells: motor cortex of living C57BL/6 mice
T1 sequence (P56481 1-453): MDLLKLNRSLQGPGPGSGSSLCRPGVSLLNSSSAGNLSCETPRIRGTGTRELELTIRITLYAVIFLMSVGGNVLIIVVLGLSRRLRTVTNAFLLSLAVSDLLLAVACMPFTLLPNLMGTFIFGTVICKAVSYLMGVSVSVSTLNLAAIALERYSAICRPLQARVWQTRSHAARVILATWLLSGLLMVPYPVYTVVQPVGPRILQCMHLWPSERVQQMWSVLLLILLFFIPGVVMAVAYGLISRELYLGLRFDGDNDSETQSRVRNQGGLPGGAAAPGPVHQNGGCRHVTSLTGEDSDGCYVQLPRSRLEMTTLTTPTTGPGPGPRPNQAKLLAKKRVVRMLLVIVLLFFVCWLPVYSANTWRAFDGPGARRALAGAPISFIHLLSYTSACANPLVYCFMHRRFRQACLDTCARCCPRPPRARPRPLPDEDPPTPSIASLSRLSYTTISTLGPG
Protocol: as §1
C57BL/6 mice are implanted a cannula in the motor cortex (coordinates: AP, 1.4 mm, ML, −/+1.6 mm, DV, 0.2 mm) contralateral to the dominant hand of the mice, followed by three days of recovery. Mice are grouped into antagonist and vehicle groups. L365,260 (CCKBR antagonist) (1 μl, 20 μM, Cat #2767, Bio-Techne, https://www.bio-techne.com/, USA) or vehicle (0.1% DMSO dissolved in ACSF) is injected into the motor cortex through the cannula with the flow rate of 100 nl/min pumped by a syringe pump (Hamilton, http://hamiltoninstrument.com, USA), before the mice are placed into the chamber for the single pellet reaching task training.

[3] = test system: neurons in the motor cortex layer 2/3; test: Calcium imaging of layer 2/3 of the motor cortex during single pellet reaching task training; format: in vivo, C57BL/6 mice; settings: for activated population activity (peak activity minus baseline activity): C57BL/6 mice injected with L365,260 (0.4 mg/kg i.p.); for pairwise Hausdorff distance of trajectories / trial-to-trial population activity correlation (Pearson correlation coefficient): C57BL/6 mice injected with L365,260
Protocol: as §1
The surface virus infusion process for the calcium imaging is performed as described previously with mild modification^5. A wide-tip glass pipette is prepared by a micropipette puller and then cut, polished, and flame-treated to make it even and smooth. Mice are […] injected with dexamethasone (0.2 mg/kg, s.c.) and carprofen (5 mg/kg, s.c.) to protect the brain from swelling and inflammation. Three hours later, mice are anesthetized with pentobarbital. The periosteum covered on the skull is removed, cleaned, and dried with 100% alcohol to prevent the skull and tissues from growing. A 3×3 mm^2 window above the motor cortex contralateral to the dominant hand is opened with a hand drill, and the bone debris is carefully removed with fine forceps. After that, the dura around the injection area is removed (open a dura hole of about 1 mm^2) to expose the pial tissue for virus infusion. The tip of the pipette tightly covered the brain surface by lowering 400-500 μm, and 0.6 μl virus is infused at the speed of 0.06 μl/min. A 3×3 cover glass (thickness, around 150 μm) is attached to the brain surface, and gentle pressure is applied to keep the cover glass at the level same as the skull. The edge of the cover glass is sealed with superglue. After the glue is totally hardened, the skin is stretched back and sutured.
2-3 weeks after cranial window implantation, the scalp over the skull is totally removed with surgical scissors. […] The cover glass surface is gently cleaned with Ringer's solution and lens paper, and the regrowth of periosteum on the skull is removed with fine forceps. Before baseplate implantation, the skull is dried with 100% alcohol, covered with Metbondglue, and a thick layer of dental acrylic except for the cover glass for observation.
The LED is turned on and the focal distance of the electrowetting lens is adjusted to 0 on the software. The position of the miniscope is adjusted until the brain tissue is observed in the data acquisition system. Dental acrylic is used to fix the baseplate to the acrylic cap covering the skull around the window. Once the dental acrylic has hardened, the miniscope is removed, and a metal cap is attached to the baseplate to protect the cover glass window.
After the implantation of the baseplate, a miniscope model is attached to the baseplate, and the mouse is placed in the chamber to acclimate to the weight of the miniscope for 20 minutes for 3 days. The LED laser and focal plate are slightly adjusted until the cells with fluorescent protruded from the background. A web camera is also connected to the data acquisition software and recorded the behavior movement of the animal simultaneously. An imaging field of about 1.0×1.0 mm^2 (resolution: 608×608 pixels) video at approximately 10 min long is recorded. To clearly figure out the role of CCK played in the neuronal plasticity of the motor cortex from CCK^−/− mice, C57BL/6 mice as well as C57BL/6 mice that intraperitoneal injection of CCKBR antagonist, L365,260 (0.4 mg/kg, Cat #2767, Bio-Techne, https://www.bio-techne.com, USA). Raw AVI videos are firstly spatially down-sample by two folds to reduce the size of the videos by Fiji (Image J, https://imagej.net/imagej-wiki-static/Fiji/Downloads, USA). Then a MATLAB algorithm, NoRMCorre, is applied for piecewise rigid motion correction before data analysis. The calcium signals are extracted with the MATLAB code of Constrained Nonnegative Matrix Factorization for microEndoscopic (CNMF-E) (code availability: https://github.com/zhoupc/CNMF_E) 6. The scaled fluorescent calcium signal overtime is extracted as C_raw. The raw data is then deconvolved. […] Timestamps from both the behavior videos and the calcium imaging videos are aligned to find out the time window when the mouse perform the reaching task. […]

Which “average normalized fEPSP amplitude” value ([1]; after HFS (50-60 min)) does the source give for Trp-Met-Asp-Phe-NH2 [CCK4] here?
Its value is 118.89%±6.09%.

And the “average normalized fEPSP amplitude” value ([1]; before HFS (−10-0 min))?
The value was 100.28%±0.47%.

What about the success rate (CCK^−/− mice; Day 1) of the same compound?
The success rate was 19.17%±3.03%.

What about the success rate (CCK^−/− mice; Day 5, 0.45 mg/kg) of the same compound?
The success rate was 30.58%±4.18% and 30.51%±4.18%.

What about the success rate (CCK^−/− mice; Day 6) of the same compound?
The success rate was 31.50%±4.43%.

What about the miss rate (CCK^−/− mice; Day 1) of the same compound?
The miss rate was 25.47%±4.03%.

What about the miss rate (CCK^−/− mice; Day 5) of the same compound?
Its miss rate is 13.13%±2.80.

And the brain-blood barrier passage (CCK^−/− mice; concluded from behavioural rescue after i.p. injection)?
Its brain-blood barrier passage is “could cross the brain-blood barrier”.

Cc1cccc(NC(=O)N[C@@H]2N=C(c3ccccc3)c3ccccc3N(C)C2=O)c1 [L365,260] was tested. Which success rate ([2]; Day 3) did it give?
The success rate was 16.80±2.83%.

And the success rate ([2]; Day 4)?
The success rate was 18.16±3.12%.

And the “success rate of pellet retrieval, change through the 6-day training period” value ([2]; infused into motor cortex every day before training)?
The value was “not improved”.

What about the “drop rate, change Day 1 vs. Day 5” value ([2]; motor cortex injection) of the same compound?
Its value is “no significant changes”.

And the miss rate ([2]; motor cortex injection, Day 1)?
The miss rate was 27.34%±9.85%.

What about the “number of miss, change with learning” value ([2]; motor cortex injection, Day 1 vs. Day 5) of the same compound?
The value was “no significant decrease”.

What about the miss rate ([2]; motor cortex injection, Day 5) of the same compound?
Its miss rate is 24.75%±2.34%.

And the no-grasp rate ([2]; motor cortex injection, Day 5)?
Its no-grasp rate is 34.69%±4.12%.

And the “activated population activity (peak activity minus baseline activity)” value ([3]; Day 1)?
Its value is 0.0218±0.0094.

What about the “activated population activity (peak activity minus baseline activity)” value ([3]; Day 6) of the same compound?
Its value is 0.0354±0.0080.

What about the “pairwise Hausdorff distance of trajectories” value ([3]; Day 1) of the same compound?
Its value is 0.7012±0.0594 cm.

And the “trial-to-trial population activity correlation (Pearson correlation coefficient)” value ([3]; Day 1)?
Its value is 0.12±0.07.

And the “pairwise Hausdorff distance of trajectories” value ([3]; Day 6)?
Its value is 0.6712±0.0659 cm.

And the “trial-to-trial population activity correlation (Pearson correlation coefficient)” value ([3]; Day 6)?
Its value is 0.12±0.05.

Source: patent US20250002555A1, “METHODS FOR THERAPY AND REHABILITATION OF MOVEMENT DISORDERS” (City University of Hong Kong, priority 2023, published 2025)
